Key:
fungus organisms = details: background statement; cited from earlier work
physchem = details: water, pH 2, water
[1] = forms otherwise stable and appropriate; background statement; cited from earlier work

Row | Compound | antifungal properties (fungus organisms) | development of resistant strains or forms (fungus organisms) | solubility (physchem) | amount soluble in 750 ml of methanol (solubility in methanol; 750 ml methanol) | water solubility (background, in words) [1] | solubility in methanol at pH 9.5 (in words) | extent of solubilization in methanol (solubility in methanol; 100 mg added to 750 ml methanol) | extent of solubility in methanol at pH 9.5 (solubility in methanol; 100 mg in 80 ml methanol, pH adjusted to 9.5 with triethylamine)
1 | C[C@@H]1[C@H](O)[C@@H](C)/C=C/C=C/C=C/C=C/C=C/C=C/C=C/[C@H](O[C@@H]2O[C@H](C)[C@@H](O)[C@H](N)[C@@H]2O)C[C@@H]2O[C@](O)(C[C@@H](O)C[C@@H](O)[C@H](O)CC[C@@H](O)C[C@@H](O)CC(=O)O[C@H]1C)C[C@H](O)[C@H]2C(=O)O [amphotericin B] | powerful antifungal properties | apparent inability of fungus organisms to develop readily any strains or forms that are resistant to amphotericin B | < 1000 µg/mL | 100 mg | lack of adequate water solubility | completely soluble | – | –
2 | Amphotericin B-Calcium-Oxalic Acid Complex [Example 1] | – | – | – | – | – | – | 40% | 35%
